Assays:
Assay in all cases: Test B pre-/postemergence plant response
Format in all cases: in vivo
[1] = tested on: blackgrass (Alopecurus myosuroides)
Outline: (§1)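 Visual scoring from 0 (no effect) to 100 (complete control) against untreated controls was done 13 to 15 days after greenhouse treatment. Chemicals were formulated in a surfactant-containing non-phytotoxic solvent and applied to soil preemergence or to 1- to 4-leaf (2-18 cm) plants postemergence.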

[2] = tested on: catchweed bedstraw (Galium aparine); settings: Preemergence
Outline: as §1

[3] = tested on: common ragweed (Ambrosia elation); settings: for Ragweed plant response rating: 8 g ai/ha
Outline: as §1

corn (Zea mays) = settings: for Corn plant response rating: 8 g ai/ha
Outline: as §1

[4] = tested on: downy bromegrass (Bromus tectorum); settings: for Bromegrass, Downy plant response rating: 8 g ai/ha
Outline: as §1

[5] = tested on: giant foxtail (Setaria faberii); settings: for Foxtail, Giant plant response rating: 8 g ai/ha
Outline: as §1

[6] = tested on: goosegrass (Eleusine indica); settings: for Goosegrass plant response rating: 8 g ai/ha
Outline: as §1

[7] = tested on: green foxtail (Setaria viridis); settings: for Foxtail, Green plant response rating: 8 g ai/ha
Outline: as §1

[8] = tested on: lambsquarters (Chenopodium album); settings: for Lambsquarters plant response rating: 8 g ai/ha
Outline: as §1

[9] = tested on: morningglory (Ipomoea coccinea); settings: for Morningglory plant response rating: 8 g ai/ha
Outline: as §1

[10] = tested on: pigweed (Amaranthus retroflexus); settings: for Pigweed plant response rating: 8 g ai/ha
Outline: as §1

[11] = tested on: surinam grass (Brachiaria decumbens); settings: for Surinam Grass plant response rating: 8 g ai/ha
Outline: as §1

wild oat (Avena fatua) = settings: for Oat, Wild plant response rating: 8 g ai/ha
Outline: as §1

[12] = tested on: woolly cupgrass (Eriochloa villosa); settings: for Cupgrass, Woolly plant response rating: 8 g ai/ha
Outline: as §1

[13] = Postemergence, 16 g ai/ha, scale 0 to 100
[14] = Postemergence, 31 g ai/ha, scale 0 to 100
[15] = Postemergence, 62 g ai/ha, scale 0 to 100, 0 no effect, 100 complete control
[16] = Preemergence, 16 g ai/ha, scale 0 to 100 (0 no effect, 100 complete control)
[17] = Preemergence, 31 g ai/ha, 0 to 100 scale, 0 no effect, 100 complete control
[18] = Preemergence, 62 g ai/ha, scale 0 to 100
[19] = Preemergence, 31 g ai/ha, scale 0 to 100 (0 no effect, 100 complete control)

Cn1ncc(O)c(-n2nc(-c3ccc(Cl)cc3)cc2C2CC2)c1=O [Compound 45]
0: Blackgrass plant response rating ([1]; 8 g ai/ha, postemergence, 0-100 scale) | Plant response rating, Galium ([2]; 16 g ai/ha, scale 0 to 100 (0 no effect, 100 complete control)) | Plant response rating, Galium ([2]; 31 g ai/ha, 0 to 100 scale, 0 no effect, 100 complete control) | Plant response rating, Galium ([2]; 62 g ai/ha, scale 0 to 100) | Galium plant response rating ([2]; 8 g ai/ha, scale 0 to 100) | Ragweed plant response rating ([3]; postemergence, 0-100 scale) | Plant response rating, Ragweed [3, 13] | Plant response rating, Ragweed [3, 14] | Plant response rating, Ragweed [3, 15] | Plant response rating, Ragweed [3, 16] | Plant response rating, Ragweed [3, 19] | Plant response rating, Ragweed [3, 18] | Ragweed plant response rating ([3]; Preemergence, scale 0 to 100) | Corn plant response rating (corn (Zea mays); Preemergence, scale 0 to 100) | Bromegrass, Downy plant response rating ([4]; Preemergence, scale 0 to 100) | Plant response rating, Foxtail, Giant [5, 16] | Foxtail, Giant plant response rating ([5]; Preemergence, scale 0 to 100) | Plant response rating, Goosegrass [6, 16] | Plant response rating, Goosegrass [6, 17] | Plant response rating, Goosegrass [6, 18] | Goosegrass plant response rating ([6]; Preemergence, scale 0 to 100) | Lambsquarters plant response rating ([8]; postemergence, 0-100 scale) | Plant response rating, Lambsquarters [8, 13] | Plant response rating, Lambsquarters [8, 14] | Plant response rating, Lambsquarters [8, 15] | Plant response rating, Lambsquarters [8, 16] | Plant response rating, Lambsquarters [8, 17] | Plant response rating, Lambsquarters [8, 18] | Lambsquarters plant response rating ([8]; Preemergence, scale 0 to 100) | Morningglory plant response rating ([9]; postemergence, 0-100 scale) | Plant response rating, Morningglory [9, 13] | Plant response rating, Morningglory [9, 14] | Plant response rating, Morningglory [9, 15] | Plant response rating, Morningglory [9, 16] | Plant response rating, Morningglory [9, 19] | Plant response rating, Morningglory [9, 18] | Morningglory plant response rating ([9]; Preemergence, scale 0 to 100) | Pigweed plant response rating ([10]; postemergence, 0-100 scale) | Plant response rating, Pigweed [10, 13] | Plant response rating, Pigweed [10, 14] | Plant response rating, Pigweed [10, 15] | Plant response rating, Pigweed [10, 16] | Plant response rating, Pigweed [10, 19] | Plant response rating, Pigweed [10, 18] | Pigweed plant response rating ([10]; Preemergence, scale 0 to 100) | Surinam Grass plant response rating ([11]; Preemergence, scale 0 to 100) | Plant response rating, Cupgrass, Woolly [12, 16] | Plant response rating, Cupgrass, Woolly [12, 18] | Cupgrass, Woolly plant response rating ([12]; Preemergence, scale 0 to 100)
40: Plant response rating, Surinam Grass [11, 19]
90: Plant response rating, Blackgrass [1, 15] | Plant response rating, Corn (corn (Zea mays); [13]) | Plant response rating, Bromegrass, Downy [4, 14] | Plant response rating, Bromegrass, Downy [4, 15] | Plant response rating, Bromegrass, Downy [4, 18] | Foxtail, Giant plant response rating ([5]; postemergence, 0-100 scale) | Plant response rating, Surinam Grass ([11]; Preemergence, 62 g ai/ha, 0 to 100 scale, 0 no effect, 100 complete control) | Oat, Wild plant response rating (wild oat (Avena fatua); postemergence, 0-100 scale) | Plant response rating, Oat, Wild (wild oat (Avena fatua); [19])
98: Plant response rating, Blackgrass [1, 16] | Plant response rating, Corn (corn (Zea mays); [18]) | Plant response rating, Foxtail, Giant [5, 13] | Plant response rating, Surinam Grass [11, 14] | Plant response rating, Oat, Wild (wild oat (Avena fatua); [13])
35: Plant response rating, Foxtail, Giant [5, 17]
75: Surinam Grass plant response rating ([11]; postemergence, 0-100 scale)
100: Plant response rating, Blackgrass [1, 17] | Plant response rating, Blackgrass [1, 18] | Plant response rating, Foxtail, Giant [5, 14] | Plant response rating, Foxtail, Giant [5, 15] | Plant response rating, Foxtail, Green [7, 14] | Plant response rating, Foxtail, Green [7, 15] | Plant response rating, Foxtail, Green [7, 16] | Plant response rating, Foxtail, Green [7, 17] | Plant response rating, Foxtail, Green [7, 18] | Foxtail, Green plant response rating ([7]; Preemergence, scale 0 to 100) | Plant response rating, Surinam Grass [11, 15] | Plant response rating, Oat, Wild (wild oat (Avena fatua); [14]) | Plant response rating, Oat, Wild (wild oat (Avena fatua); [15]) | Plant response rating, Cupgrass, Woolly [12, 14] | Plant response rating, Cupgrass, Woolly [12, 15]
85: Plant response rating, Blackgrass [1, 14] | Corn plant response rating (corn (Zea mays); postemergence, 0-100 scale) | Plant response rating, Surinam Grass [11, 13] | Cupgrass, Woolly plant response rating ([12]; postemergence, 0-100 scale)
30: Bromegrass, Downy plant response rating ([4]; postemergence, 0-100 scale)
65: Plant response rating, Corn (corn (Zea mays); [17]) | Goosegrass plant response rating ([6]; postemergence, 0-100 scale)
95: Plant response rating, Corn (corn (Zea mays); [14]) | Plant response rating, Corn (corn (Zea mays); [15]) | Plant response rating, Goosegrass [6, 15] | Plant response rating, Foxtail, Green [7, 13] | Plant response rating, Oat, Wild (wild oat (Avena fatua); [18]) | Plant response rating, Cupgrass, Woolly [12, 13]
50: Plant response rating, Bromegrass, Downy [4, 16]
70: Plant response rating, Goosegrass [6, 13]
80: Plant response rating, Bromegrass, Downy [4, 17] | Plant response rating, Goosegrass [6, 14] | Plant response rating, Oat, Wild (wild oat (Avena fatua); [16])
20: Plant response rating, Blackgrass [1, 13] | Plant response rating, Surinam Grass [11, 16]
45: Plant response rating, Foxtail, Giant [5, 18]
55: Plant response rating, Corn (corn (Zea mays); [16])
60: Plant response rating, Bromegrass, Downy [4, 13] | Foxtail, Green plant response rating ([7]; postemergence, 0-100 scale)
15: Oat, Wild plant response rating (wild oat (Avena fatua); Preemergence, scale 0 to 100)

Source: patent publication US20100267561A1, “HERBICIDAL PYRIDAZINONE DERIVATIVES” (priority 2007, published 2010)
